Where a name gives a salt, the structure may show the parent alone.
Experiments:
Format in all cases: cell-based
[1] = tested on: Acinetobacter baumanaii NCTC 19606; experiment: multi-point inoculation onto Columbia agar plates; details: substrate 300 mg/L, FAC 500 mg/L, 18 h at 37° C. in air
Description: (§1) The specificity of action of both DHN-β-D-glucuronide (2) and of catechol-β-D-glucuronide (1), as well as their 6′-methyl esters (4 and 6), was first established using multi-point inoculation of 20 different microbial strains onto Columbia agar plates. The strains chosen represented species commonly encountered in diagnostic microbiology. The substrates were incorporated into the agar at a concentration of 300 mg/L with an iron salt, ferric ammonium citrate, (hereinafter known as FAC) at 500 mg/L. The plates were incubated for 18 h at 37° C. in air.

[2] = tested on: Bacillus subtilis NCTC 9372; experiment: multi-point inoculation onto Columbia agar plates; details: substrate 300 mg/L, FAC 500 mg/L, 18 h at 37° C. in air
Description: as §1

[3] = tested on: Burkholderia cepacia NCTC 10931; experiment: multi-point inoculation onto Columbia agar plates; details: substrate 300 mg/L, FAC 500 mg/L, 18 h at 37° C. in air
Description: as §1

[4] = tested on: Candida albicans ATCC 90028; experiment: multi-point inoculation onto Columbia agar plates; details: substrate 300 mg/L, FAC 500 mg/L, 18 h at 37° C. in air
Description: as §1

[5] = tested on: Candida glabrata NCPF 3943; experiment: multi-point inoculation onto Columbia agar plates; details: substrate 300 mg/L, FAC 500 mg/L, 18 h at 37° C. in air
Description: as §1

[6] = tested on: Enterobacter cloacae NCTC 11936; experiment: multi-point inoculation onto Columbia agar plates; details: substrate 300 mg/L, FAC 500 mg/L, 18 h at 37° C. in air
Description: as §1

[7] = tested on: Enterococcus faecalis NCTC 775; experiment: multi-point inoculation onto Columbia agar plates; details: substrate 300 mg/L, FAC 500 mg/L, 18 h at 37° C. in air
Description: as §1

[8] = tested on: Enterococcus faecium NCTC 7171; experiment: multi-point inoculation onto Columbia agar plates; details: substrate 300 mg/L, FAC 500 mg/L, 18 h at 37° C. in air
Description: as §1

[9] = tested on: Escherichia coli NCTC 10418; experiment: multi-point inoculation onto Columbia agar plates; details: substrate 300 mg/L, FAC 500 mg/L, 18 h at 37° C. in air
Description: as §1

[10] = tested on: Klebsiella pneumoniae NCTC 9528; experiment: multi-point inoculation onto Columbia agar plates; details: substrate 300 mg/L, FAC 500 mg/L, 18 h at 37° C. in air
Description: as §1

[11] = tested on: Listeria monocytogenes NCTC 11994; experiment: multi-point inoculation onto Columbia agar plates; details: substrate 300 mg/L, FAC 500 mg/L, 18 h at 37° C. in air
Description: as §1

[12] = tested on: Providencia rettgeri NCTC 7475; experiment: multi-point inoculation onto Columbia agar plates; details: substrate 300 mg/L, FAC 500 mg/L, 18 h at 37° C. in air
Description: as §1

[13] = tested on: Pseudomonas aeruginosa NCTC 10662; experiment: multi-point inoculation onto Columbia agar plates; details: substrate 300 mg/L, FAC 500 mg/L, 18 h at 37° C. in air
Description: as §1

[14] = tested on: Salmonella typhimurium NCTC 74; experiment: multi-point inoculation onto Columbia agar plates; details: substrate 300 mg/L, FAC 500 mg/L, 18 h at 37° C. in air
Description: as §1

[15] = tested on: Serratia marcescens NCTC 10211; experiment: multi-point inoculation onto Columbia agar plates; details: substrate 300 mg/L, FAC 500 mg/L, 18 h at 37° C. in air
Description: as §1

[16] = tested on: Staphylococcus aureus (MRSA) NCTC 11939; experiment: multi-point inoculation onto Columbia agar plates; details: substrate 300 mg/L, FAC 500 mg/L, 18 h at 37° C. in air
Description: as §1

[17] = tested on: Staphylococcus aureus NCTC 6571; experiment: multi-point inoculation onto Columbia agar plates; details: substrate 300 mg/L, FAC 500 mg/L, 18 h at 37° C. in air
Description: as §1

[18] = tested on: Staphylococcus epidermidis NCTC 11047; experiment: multi-point inoculation onto Columbia agar plates; details: substrate 300 mg/L, FAC 500 mg/L, 18 h at 37° C. in air
Description: as §1

[19] = tested on: Streptococcus pyogenes NCTC 8306; experiment: multi-point inoculation onto Columbia agar plates; details: substrate 300 mg/L, FAC 500 mg/L, 18 h at 37° C. in air
Description: as §1

[20] = tested on: Yersinia enterocolitica NCTC 11176; experiment: multi-point inoculation onto Columbia agar plates; details: substrate 300 mg/L, FAC 500 mg/L, 18 h at 37° C. in air
Description: as §1

[21] = tested on: 20 different microbial strains; experiment: specificity of action on 20 different microbial strains, Columbia agar; details: 19 organisms other than E. coli NCTC 10418, FAC
Description: as §1
Of the 20 strains, only the β-D-glucuronidase-positive strain of E. coli, (E. coli NCTC 10418) was able to hydrolyse the substrates. This organism generated diffuse, purple-brown colonies with the catechol substrates and diffuse, maroon colonies with the DHN substrates. Essentially identical results were obtained if other iron salts (e.g. iron(II) gluconate, iron(II) acetate, iron(II) citrate, iron(II) acetylacetonate and iron(III) acetylacetonate) were substituted in place of FAC. The iron compound can be either iron(II) (i.e. ferrous) or iron(III) (i.e. ferric). Both types of compound work equally, and the coloured chelates were still formed when the plates were incubated under anaerobic conditions, which is another useful feature of the present invention. The substrates may also be autoclaved at 116° C. for 20 minutes with no decrease in sensitivity. It will be appreciated that the media and the reagents will all contain at least traces of iron compounds. […] In contrast, supplementing the growth media with compounds of other metals gave either no coloured endpoint or an extremely poor one to visualise. […] Therefore the latter substrates were preferred for more extensive evaluation. […] For convenience, further evaluation of catechol-β-D-glucuronide and DHN-β-D-glucuronide was conducted with the CHA salt forms only (1 and 2b). In the present invention the counter ion of the glucuronide is not considered to be of special significance. For acidic enzyme substrates (including glucuronides), a variety of different counter ions, both inorganic and organic, are well known in the prior art.

[22] = tested on: E. faecalis NCTC 775; experiment: screen of strains on agar plates (CPS ID 3 or Columbia agar); parameters: key: Red, Green, Black or Purple mean strong colour; Red, Green, Black or Purple mean strong colour; Red, Green, Black or Purple mean strong colour; Red, Green, Black or Purple mean strong colour; +/− means less colour than strong; Tr means a trace of colour, less than +/−; — means no colour; details: 37° C. 18 hours

| SMILES | colour [1] | colour [2] | colour [3] | colour [4] | colour [5] | colour [6] | colour [7] | colour [8] | colour [9] | colour [10] | colour [11] | colour [12] | colour [13] | colour [14] | colour [15] | colour [16] | colour [17] | colour [18] | colour [19] | colour [20] | also measured |
| --- | --- | --- | --- | --- | --- | --- | --- | --- | --- | --- | --- | --- | --- | --- | --- | --- | --- | --- | --- | --- | --- |
| O=C(O)C1OC(Oc2cc3ccccc3cc2O)C(O)C(O)C1O [Compound 2b, DHN-β-D-Glucuronide CHA Salt] | − | − | − | − | − | − | − | − | ++ | − | − | − | − | − | − | − | − | − | − | − | result with the other 19 organisms [21]: uniformly negative |
| O=C(O)[C@H]1O[C@@H](Oc2c[nH]c3ccc(Br)c(Cl)c23)[C@H](O)[C@@H](O)[C@@H]1O [X-β-D-glucuronide CHA salt, 5-bromo-4-chloro-3-indolyl β-D-glucuronide] |  |  |  |  |  |  |  |  |  |  |  |  |  |  |  |  |  |  |  |  | colour [22]: — |
| O=C(O)[C@H]1O[C@@H](Oc2c[nH]c3cc(Cl)ccc23)[C@H](O)[C@@H](O)[C@@H]1O [Rose-β-D-glucuronide CHA salt, 6-chloro-3-indolyl β-D-glucuronide] |  |  |  |  |  |  |  |  |  |  |  |  |  |  |  |  |  |  |  |  | colour [22]: — |
| O=C(O)C1OC(Oc2ccccc2O)C(O)C(O)C1O [Compound 1, Catechol β-D-Glucuronide CHA Salt] | − | − | − | − | − | − | − | − | ++ | − | − | − | − | − | − | − | − | − | − | − | result with the other 19 organisms [21]: uniformly negative |

— US9879303B2, “Chromogenic glucuronidase substrates and uses” (Glycosynth Limited, priority 2013, dated 2018)
